Reference: article PMC11219860, “A chemogenetic approach for dopamine imaging with tunable sensitivity” (Nature Communications, 2024)

How the values were obtained:
dLight1.3b [1] = assay: In vivo single-fiber photometry of dLight1.3b baseline in freely-moving mice; design: species or system mouse; conditions: DETQ 10 mg/kg i.p.
Description: For combined locomotion/photometry experiments in the open field (OF) in tethered mice, a 50 × 50 cm arena was used. Fiber photometry was conducted using a Doric photometry rig combined with a filter/mirror minicube set (Doric Lenses), as above. […] Data were sampled at 122 Hz. […] Mice were habituated to the chamber for 3 consecutive days (30 minutes per day). On experimental days, locomotor activity was video recorded and synchronized with fiber photometry signal recording. […] The OF chamber was cleaned with ethanol and water between mice. Recording sessions were repeated at 48 hours intervals. Mouse behavior as well as photometry signals were analyzed with a custom-written MATLAB script. Mouse locomotion was computed using the body center point of the animal. The center zone of the arena was defined automatically during behavior data analysis as the 25 × 25 cm square with the central point aligned to the center of the open field. […] Videos were recorded with a Logitech C270 camera and analyzed with DeepLabCut (version 2.1.8.2)[84] on an existing open field network. Representative traces were generated with the Anymaze (v7.2) software (Stoelting Co.).

AlloLite-ctr = AlloLite-ctr (Homo sapiens, UniProt P21728, L143A/R130Q); type: cell-based
Description: Cells were transfected at 50–60% confluency in glass-bottomed dishes (either individually or in 24-well plates) using the Effectene transfection kit (Qiagen) according to manufacturer instructions, and imaged 24–48 h after transfection. The Flp-In™ T-REx™ 293 cells (Thermo Fisher) with a stably integrated dLight1.3b cassette[48] were cultured as follows: the cells were cultured using HEK293T cell medium with the addition of Blasticidin (15 µg/ml) and Hygromycin B (200 µg/ml). To induce the expression of dLight1.3b, doxycycline (500 ng/ml) was added to the culture medium for 24–48 hours. Before imaging, cells were rinsed with 1 mL of Hank’s Balanced Salt Solution (HBSS, Life Technologies) supplemented with Ca^2+ (2 mM) and Mg^2+ (1 mM), and imaged at room temperature with a final HBSS volume of either 100 µL for each individual 1.5 cm glass bottom dish, or 500 µL for 24-well plates. […] For quantification, except otherwise noted, regions of interest (ROI) were selected manually using the threshold function of Fiji to isolate the cell membrane. Sensor response (∆F/F) was calculated as the following: (F(t)-F_base)/F_base with F(t) being the ROI fluorescence value at each time point (t), and F_base being the mean fluorescence of the 10-time points immediately prior to ligand addition.

dLight1.3bL143I = dLight1.3bL143I (Homo sapiens, UniProt P21728, L143I); assay: cell-based; type: cell-based
Description: Cells were transfected at 50–60% confluency in glass-bottomed dishes (either individually or in 24-well plates) using the Effectene transfection kit (Qiagen) according to manufacturer instructions, and imaged 24–48 h after transfection. The Flp-In™ T-REx™ 293 cells (Thermo Fisher) with a stably integrated dLight1.3b cassette[48] were cultured as follows: the cells were cultured using HEK293T cell medium with the addition of Blasticidin (15 µg/ml) and Hygromycin B (200 µg/ml). To induce the expression of dLight1.3b, doxycycline (500 ng/ml) was added to the culture medium for 24–48 hours. Before imaging, cells were rinsed with 1 mL of Hank’s Balanced Salt Solution (HBSS, Life Technologies) supplemented with Ca^2+ (2 mM) and Mg^2+ (1 mM), and imaged at room temperature with a final HBSS volume of either 100 µL for each individual 1.5 cm glass bottom dish, or 500 µL for 24-well plates. Time-lapse imaging was performed on an inverted Zeiss LSM 800 confocal microscope using a 488 nm laser and a 40X oil-based objective. During imaging, ligands were added in bolus on the cells using a micropipette to reach the final specified concentrations of ligand over the cells. For quantification, except otherwise noted, regions of interest (ROI) were selected manually using the threshold function of Fiji to isolate the cell membrane. Sensor response (∆F/F) was calculated as the following: (F(t)-F_base)/F_base with F(t) being the ROI fluorescence value at each time point (t), and F_base being the mean fluorescence of the 10-time points immediately prior to ligand addition.

dLight1.3b [2] = assay: In vivo photometry of optogenetically-evoked DA release in PFC; design: species or system mouse; conditions: DETQ 10 mg/kg i.p.
Description: Fiber photometry combined with optogenetics was conducted using a RZ10X LUX-I/O Processor with integrated LEDs (Tucker-Davis Technologies) combined with a filter/mirror minicube set (FMC6_IE(400-410)_E1(467-497)_F1(507-554)_E2(566-586)_F2(600-680)_S) (Doric Lenses). […] Low-autofluorescence patch cords (400 µm/0.57 NA, Doric) were attached to the optic fibers (400 µm/0.66 NA, Doric) on the mouse’s head to collect fluorescence emissions. Signals were filtered through 500–540 nm GFP emission filters coupled to a photodetector on the RZ10X. […] Data were sampled at 1017.3 Hz. […] For optogenetic stimulation, a 635 nm LED was passed through the 580–680 nm minicube F2 port and reached the mouse through the same unique optic fiber; the LED was driven at 1 to 3 mW. To determine the ‘temporal window for stable imaging’ in the PFC using dLight1.3b recordings, DAT^IREScre mice expressing ChrimsonR in VTA DA axons and dLight1.3b in the PFC were injected i.p. with vehicle at 0 min, followed by DETQ (10 mg/kg) 25 min later. After each injection, PFC DA axons were optically (opto) activated across 5 trials (2 s, 20 Hz, 20-ms pulses) for the vehicle (20 min) and […] for DETQ (1h05 min) every 5 min. DA release was measured with fiber photometry. In another session, the same mice were injected with Veh, then DETQ (10 mg/kg) 20 min later, then cocaine (20 mg/kg) 25 min later, and the same optogenetic protocol was applied (2 s, 20 Hz, 20-ms pulses every 5 min). For optogenetic validation of AlloLite-ctr in the NAc, DAT^IREScre mice expressing ChrimsonR in VTA DA axons were injected i.p. with vehicle (Day 1) or DETQ (10 mg/kg) (Day 8) at 0 min, followed by cocaine (20 mg/kg) 20 min later. After each injection, NAc DA axons were optically (opto) activated across 3 trials (2 s, 20 Hz, 20-ms pulses) every 5 min and DA released measured with fiber photometry. […] After each injection, NAc DA axons were optically (opto) inhibited (10 s, continuous trials) every 3 min (8 trials/condition) and DA released measured with fiber photometry. […] DA release was measured with fiber photometry.
For long-term recordings during optogenetic stimulation or chemogenetic inhibition linear fit was calculated across the entire recording or across the vehicle epoch; for event-related experiments fit was performed on fluorescent data obtained in the −60 to +60 s around opto events or −5 to −1 s around behavioral events. […] DA event-related responses were quantified by computing the value at the transient’s peak value and the AUC in the 0 to 10 s or 0 to 60 s period post-event onset. […] The maximal peak value of Veh-normalized ΔF/F0 after opto-onset was plotted over time and the plateau of maximal response was determined by averaging peak opto responses 5, 10, 15 and 20 min post-DETQ. […]

[3] = DA 100 µM, wide range of DETQ concentrations

dLight1.3bL143I, sequence (P21728 whole entry L143I, looked up): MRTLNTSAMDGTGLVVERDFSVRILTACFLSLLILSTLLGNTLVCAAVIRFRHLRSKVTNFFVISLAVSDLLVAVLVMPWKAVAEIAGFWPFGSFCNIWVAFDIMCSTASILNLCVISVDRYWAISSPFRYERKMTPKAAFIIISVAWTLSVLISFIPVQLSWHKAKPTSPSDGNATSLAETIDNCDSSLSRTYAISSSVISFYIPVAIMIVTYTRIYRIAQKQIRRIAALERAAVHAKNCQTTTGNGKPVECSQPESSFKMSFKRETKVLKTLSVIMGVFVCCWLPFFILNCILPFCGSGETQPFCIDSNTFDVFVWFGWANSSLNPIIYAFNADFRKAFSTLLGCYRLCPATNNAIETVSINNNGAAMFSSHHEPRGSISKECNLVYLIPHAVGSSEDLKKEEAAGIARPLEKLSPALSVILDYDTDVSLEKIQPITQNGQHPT

## C[C@H]1c2cccc(C(C)(C)O)c2C[C@H](CO)N1C(=O)Cc1c(Cl)cccc1Cl [DETQ, 2-(2,6-dichlorophenyl)-1-((1S,3R)-3-(hydroxymethyl)-5-(2-hydroxypropan-2-yl)-1-methyl-3,4-dihydroisoquinolin-2(1H)-yl)ethan-1-one]
dLight1.3b [1]; NAc
  increase in sensor baseline: 15–20 % ∆F/F0
dLight1.3b [1]; PFC
  increase in sensor baseline: 2–4 % ∆F/F0
AlloLite-ctr
  α factor: 1.6
AlloLite-ctr; [3]
  maximal fluorescent response to a saturating concentration of DA: not affected
dLight1.3bL143I
  Kb: 17.7 nM
  sensor response to DETQ in the absence of DA: could not trigger a response
  α factor: 10.8
dLight1.3bL143I; [3]
  maximal fluorescent response to a saturating concentration of DA: not affected
dLight1.3bL143I; human, hek293 cells
  increase in DETQ potency versus dLight1.3b: 3 fold
dLight1.3b [2]
  duration of stable increase in DA sensitivity: 31 min
  opto-evoked DA signal amplitude: clear and significant increase
  opto-evoked DA signal decay time: clear and significant increase
